Laboratory results from ChEMBL document CHEMBL5465560, “Selectivity Literature for EUbOPEN Chemogenomic Library” (2024).
Blank lines part the entries; values can stand above or below the molecule they belong to.

Key:
[1] = target: T1, Serine/threonine-protein kinase Nek1 (Homo sapiens) (UniProt Q96PY6); assay: Selectivity interaction (SelectScreen profiling (Invitrogen)) EUB0000607a NEK1; conditions: at 2 µM
T1 sequence (whole entry): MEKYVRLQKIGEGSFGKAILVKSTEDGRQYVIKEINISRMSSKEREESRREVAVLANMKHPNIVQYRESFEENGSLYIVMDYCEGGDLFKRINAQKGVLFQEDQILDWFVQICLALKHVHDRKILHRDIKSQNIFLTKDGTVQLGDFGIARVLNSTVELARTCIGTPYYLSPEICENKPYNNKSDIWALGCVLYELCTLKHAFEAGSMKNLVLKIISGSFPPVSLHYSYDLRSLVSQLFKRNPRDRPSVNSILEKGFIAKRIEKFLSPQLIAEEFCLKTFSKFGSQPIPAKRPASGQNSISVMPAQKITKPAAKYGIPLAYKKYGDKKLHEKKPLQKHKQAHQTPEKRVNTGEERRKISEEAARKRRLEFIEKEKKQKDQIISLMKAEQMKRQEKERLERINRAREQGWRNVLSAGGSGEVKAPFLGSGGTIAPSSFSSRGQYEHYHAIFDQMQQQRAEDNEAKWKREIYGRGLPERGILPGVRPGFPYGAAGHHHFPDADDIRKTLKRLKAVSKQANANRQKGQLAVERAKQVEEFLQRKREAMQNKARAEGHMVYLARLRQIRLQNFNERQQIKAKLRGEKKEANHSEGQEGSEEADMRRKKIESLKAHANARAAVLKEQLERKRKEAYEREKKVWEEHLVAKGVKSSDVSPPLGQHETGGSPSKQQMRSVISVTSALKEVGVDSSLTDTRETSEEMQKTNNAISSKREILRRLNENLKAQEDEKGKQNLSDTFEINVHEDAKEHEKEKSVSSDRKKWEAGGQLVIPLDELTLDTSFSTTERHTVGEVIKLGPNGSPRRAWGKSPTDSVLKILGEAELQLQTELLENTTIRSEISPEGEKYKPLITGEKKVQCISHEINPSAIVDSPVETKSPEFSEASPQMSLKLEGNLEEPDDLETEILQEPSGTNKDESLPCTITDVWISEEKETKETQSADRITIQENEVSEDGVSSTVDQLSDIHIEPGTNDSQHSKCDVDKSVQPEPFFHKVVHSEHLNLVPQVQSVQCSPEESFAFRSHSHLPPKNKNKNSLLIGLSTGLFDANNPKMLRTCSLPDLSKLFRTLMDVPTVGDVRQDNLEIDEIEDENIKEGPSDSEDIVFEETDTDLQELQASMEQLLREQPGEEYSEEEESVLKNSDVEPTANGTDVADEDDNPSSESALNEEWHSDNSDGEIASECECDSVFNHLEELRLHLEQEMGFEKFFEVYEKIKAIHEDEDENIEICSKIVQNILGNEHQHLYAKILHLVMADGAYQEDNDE

[2] = test system: Tyrosine-protein kinase ABL1 (Homo sapiens), P00519 [H396P]; assay: Selectivity interaction (KinomeScan (DiscoverX)) EUB0000607a ABL1; conditions: at 10 µM
[3] = target: T2, 5-hydroxytryptamine receptor 2C (Homo sapiens) (UniProt P28335); assay: Selectivity interaction (Panel of kinases, GPCRs, ion channels and transporters (enzymatic assay)) EUB0000266bCl HTR2C
T2 sequence (whole entry): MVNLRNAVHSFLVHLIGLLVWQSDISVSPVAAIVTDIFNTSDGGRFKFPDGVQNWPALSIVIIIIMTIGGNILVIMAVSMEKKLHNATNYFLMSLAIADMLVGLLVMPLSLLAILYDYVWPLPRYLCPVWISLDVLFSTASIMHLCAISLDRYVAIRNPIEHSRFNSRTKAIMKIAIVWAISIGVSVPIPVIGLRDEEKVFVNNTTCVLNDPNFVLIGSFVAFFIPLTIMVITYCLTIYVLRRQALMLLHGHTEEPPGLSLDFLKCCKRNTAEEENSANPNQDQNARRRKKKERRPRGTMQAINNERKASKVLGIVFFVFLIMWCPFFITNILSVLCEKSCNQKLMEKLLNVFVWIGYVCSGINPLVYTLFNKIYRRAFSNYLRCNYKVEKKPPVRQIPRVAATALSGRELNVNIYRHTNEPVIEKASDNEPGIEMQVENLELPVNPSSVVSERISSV

[4] = target: T3, NUAK family SNF1-like kinase 1 (Homo sapiens) (UniProt O60285); assay: Selectivity interaction (KinomeScan (DiscoverX)) EUB0000595a NUAK1; conditions: at 10 µM
T3 sequence (whole entry): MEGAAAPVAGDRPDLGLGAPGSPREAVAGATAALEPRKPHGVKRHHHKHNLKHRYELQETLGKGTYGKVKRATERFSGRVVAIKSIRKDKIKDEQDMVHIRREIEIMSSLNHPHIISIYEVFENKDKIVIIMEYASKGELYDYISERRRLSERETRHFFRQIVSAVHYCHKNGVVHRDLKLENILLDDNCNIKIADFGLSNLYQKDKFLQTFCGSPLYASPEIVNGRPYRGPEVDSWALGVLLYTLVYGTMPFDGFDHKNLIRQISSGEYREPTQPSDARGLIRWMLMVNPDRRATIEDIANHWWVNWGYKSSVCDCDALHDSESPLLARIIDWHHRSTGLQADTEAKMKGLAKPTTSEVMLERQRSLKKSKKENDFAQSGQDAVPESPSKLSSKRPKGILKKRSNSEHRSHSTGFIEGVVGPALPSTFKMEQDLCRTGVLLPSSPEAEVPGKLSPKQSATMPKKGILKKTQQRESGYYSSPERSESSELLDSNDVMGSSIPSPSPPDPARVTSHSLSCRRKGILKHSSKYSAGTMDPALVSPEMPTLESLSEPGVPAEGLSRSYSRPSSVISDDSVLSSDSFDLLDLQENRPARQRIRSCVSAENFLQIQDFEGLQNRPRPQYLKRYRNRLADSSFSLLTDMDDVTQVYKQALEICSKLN

SMILES: CNC(=O)Nc1ccc(-c2nc(N3CC4CCC(C3)O4)c3cnn(C4CCC5(CC4)OCCO5)c3n2)cc1
% of inhibition [1]: 7%
% of control [2]: 100%

pXC50 [3]: 4.7 M
SMILES: CCn1c(-c2nc3cc(C(=O)N4CCCC(N)C4)ccc3n2C)cc2ccccc21 (centres undefined)

SMILES: COCC(=O)NC/C=C/c1ccc2ncnc(Nc3ccc(Oc4ccc(C)nc4)c(C)c3)c2c1 [CP-724714]
% of control [4]: 100%
